Data published in patent publication US20250122465A1 (priority 2023, published 2025).
Like-named read-outs stand apart in the source and are kept apart here.

How the values were obtained:
[1] = system: STRAIN-1; assay: Spore activation rate by phase-contrast microscopy, STRAIN-1; assay type: cell-based, Bacillus
[2] = system: Clostridium perfringens type A and G strains; conditions: combined with taurocholate; cited from earlier work
[3] = Example 1, individual amino acid at its Table 1 amount (0.08-500 g/L), 42° C., 1 hour
[4] = Example 1, individual amino acid at its Table 1 amount (0.08-500 g/L), 42° C., 24 hours

SMILES | Activation Rate (%) at 1 hr. [1, 3] [%] | Activation Rate (%) at 24 hrs. [1, 4] | further results
N[C@@H](CO)C(=O)O [L-Serine] | 0 | 0% | 
C[N+](C)(C)C[C@H](O)CC(=O)[O-] [L Carnitine] |  |  | Activation Rate (%) at 1 hr. [1]: 0%; Activation Rate (%) at 24 hrs. [1]: 0%
NCCCC[C@H](N)C(=O)O [L-Lysine] |  |  | Activation Rate (%) at 1 hr. [1]: 0%; Activation Rate (%) at 24 hrs. [1]: 0%
N[C@@H](Cc1c[nH]cn1)C(=O)O [L-Histidine] | 0 | 0% | 
C[C@H](N)C(=O)O [L-alanine] |  |  | spore germination induced [2]: approximately 50%
CC(C)C[C@H](N)C(=O)O [L-Leucine] | 0 | 0% | Activation Rate (%) at 24 hrs. [1]: zero
N[C@@H](Cc1ccccc1)C(=O)O [L-Phenylalanine] | 0 | 0% | 
O=C(O)[C@@H]1CCCN1 [L-Proline] | 0 | 0% | 
NC(=O)CC[C@H](N)C(=O)O [L-Glutamine] | 0 | 0% | 
N[C@@H](Cc1ccc(O)cc1)C(=O)O [L-Tyrosine] | 0 | 0% | 
OC[C@H]1O[C@@H](n2cnc3c(O)ncnc32)[C@H](O)[C@@H]1O [Inosine] | 0 | 0% | 
N[C@@H](CSSC[C@H](N)C(=O)O)C(=O)O [L-Cystine] | 0 | 0% | 
CSCC[C@H](N)C(=O)O [L-Methionine] | 0 | 0% | 
CC(C)[C@H](N)C(=O)O [L-Valine] | 0 | 95 +/− 0% | Activation Rate (%) at 1 hr. [1]: did not result in any activation; Activation Rate (%) at 24 hrs. ([1]; Example 1, individual amino acid at its Table 1 amount (0.08-500 g/L), 42° C., 24 hours, listed as L-valine): 95%
N[C@@H](CC(=O)O)C(=O)O [L-Aspartic acid] | 0 | 0% | 
C[C@@H](O)[C@H](N)C(=O)O [L-Threonine] | 0 | 0% | 
N=C(N)NCCC[C@H](N)C(=O)O [L-Arginine] | 0 | 0% | 
N[C@@H](CS)C(=O)O [L-Cysteine] | 0 | 0% | 
NCC(=O)O [Glycine] | 0 | 0% | 
CC[C@H](C)[C@H](N)C(=O)O [L-Isoleucine] |  | 99 +/− 0% | Activation Rate (%) at 24 hrs. ([1]; Example 1, individual amino acid at its Table 1 amount (0.08-500 g/L), 42° C., 24 hours, listed as L-isoleucine): 99%
N[C@@H](CCC(=O)O)C(=O)O [L-Glutamic acid] | 0 | 0% | 
N[C@@H](Cc1c[nH]c2ccccc12)C(=O)O [L-Tryptophan] | 0 | 0% | 
